Measured values reported in PubChem BioAssay (NCI).
Values joined by “and” are separate entries in the source; they are usually repeats but may differ in a detail not shown here. Identical values can stand only once.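 48-hour exposure; five concentrations; linearly interpolated endpoints. GI50 is the concentration that inhibits growth by half. TGI marks complete inhibition of growth.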

What was measured:
Experiment in all cases: inhibition of tumour cell growth, NCI panel, 48 h
[1] = test system: SK-OV-3 ovarian
[2] = test system: CAKI-1 renal
[3] = test system: SR leukemia
[4] = test system: OVCAR-5 ovarian
[5] = test system: RPMI-8226 leukemia
[6] = test system: OVCAR-3 ovarian
[7] = test system: 786-0 renal
[8] = test system: NCI-H460 lung
[9] = test system: CCRF-CEM leukemia
[10] = test system: NCI-H522 lung

Row | SMILES | GI50 [1] | TGI [1] | GI50 [2] [µM] | TGI [2] [µM] | GI50 [3] [µM] | TGI [3] [µM] | GI50 [4] [µM] | TGI [4] [µM] | GI50 [5] [µM] | TGI [5] [µM] | GI50 [6] [µM] | TGI [6] [µM] | GI50 [7] [µM] | TGI [7] [µM] | GI50 [8] [µM] | TGI [8] | GI50 [9] [µM] | TGI [9] [µM] | GI50 [10] [µM] | TGI [10] [µM]
1 | Nc1nccc(C#Cc2cncnc2Nc2ccc(OCc3cccc(F)c3)c(Cl)c2)n1 | 7.22 µM | > 22.5 µM | 5.37 | 11 | 3.18 | > 25 | 5.45 | 11.3 | 5.62 | 16.9 | 3.83 | 7.18 | 7.69 | > 20.1 | 5.13 | 10.3 µM | 1.33 | > 19.2 | 2.23 | 5.88
2 | COC12c3ccccc3-c3ccccc3C1[C@@H](C(=O)O)[C@H]2C(=O)O (some centres undefined) |  | > 10 µM |  | > 10 |  | > 10 |  | > 10 |  | > 10 |  | > 10 |  | > 10 |  | > 10 µM |  | > 10 |  | > 10
3 | O=S(=O)(Nc1ccc2ccc3cccc4ccc1c2c34)c1ccccc1 |  | > 100 µM |  | > 100 |  | > 100 |  | > 100 |  | 32.5 |  | 48.9 |  | > 100 |  | > 100 µM |  | 53 |  | > 100
4 | O=C(O)Cc1ccccc1 | > 1000 µM | > 2000 µM | > 1000 | > 1000 |  | > 1000 | > 1000 | > 2000 |  | 1420 |  | > 2000 |  | > 2000 | > 1000 | > 1000 µM and 933 µM | > 1000 | > 2000 | > 1000 | > 2000
5 | CN(C)c1ccc(N=C(C#N)c2nc(N)nc(N3CCOCC3)n2)cc1 | 66.2 µM | > 100 µM | 39.9 | > 100 | 34.9 | > 100 | > 100 | > 100 | 74.3 | > 100 | 34.6 | > 100 | 35.6 | > 100 | 48.1 | > 100 µM | 97.2 | > 100 | 26.5 | > 100
6 | O=C1/C(=C\c2ccccc2)CN(C(=O)c2ccccc2F)C/C1=C\c1ccccc1 | 2.4 µM | 5.34 µM | 3.4 | 12.8 | 0.407 | 3.45 | 2.16 | 5.38 | 0.125 | 0.72 | 2.36 | 5.35 | 1.85 | 3.56 | 2.67 | 7.35 µM | 1.52 | 5.62 | 1.78 | 3.47
7 | COC(=O)Oc1nn(C(=O)OC)c(=O)c2ccccc12 (tested in a mixture with another compound) |  | > 100 µM |  | > 100 |  | > 100 |  | > 100 |  | > 100 |  | > 100 |  | > 100 |  | > 100 µM |  | > 100 |  | > 100
8 | CCOC(=O)/C(=C/c1c(-c2ccccc2)[nH]c2ccccc12)C(=O)c1ccc(Cl)cc1 | 4.38 µM | > 100 µM | 4.12 | > 100 | 3.14 | 6.42 | > 100 | > 100 | 2.92 | > 100 | 3.35 | > 100 | 3.75 | > 100 | 3.03 | 10.3 µM | 2.73 | > 100 | 5.86 | > 100
9 | COc1ccc2c(c1)C(=O)/C(=C/c1ccc(OCC(=O)c3ccc(Cl)cc3)cc1)O2 | 62.5 µM | > 100 µM | 16.4 | 90.1 | 2.15 | 6.34 | 11.5 | 23.9 | 3.87 | 21.6 | 12.3 | 24.8 | 21.7 | 47.2 | 29.7 | > 100 µM | 1.92 | 4.75 | 3.77 | 15.7
10 | COc1cccc(C2C3=C(COC3=O)N(CCO)c3cc4c(cc32)CCC4)c1 (centres undefined) | 0.0663 µM |  | 0.132 | > 50 | 0.015 | 0.165 | 0.344 | > 50 | 0.127 | 11.6 | 0.018 | 0.0591 | 0.0731 | 10.8 | 0.0426 | 0.319 µM | 0.122 | > 50 | 0.00644 | 0.0165
11 | Cc1ccc2c(c1)/C(=N\N=C/c1cn(C(C)C)c3ccccc13)C(=O)N2 | > 100 µM | > 100 µM | 2.6 | > 100 | 0.261 | > 100 | 35.1 | > 100 | 0.396 | 7.31 | 0.311 | 31.9 | 18.6 | > 100 | 0.833 | 13.1 µM | 0.367 | > 100 | 1.05 | > 100
12 | C/C(=N\NC(=S)Nc1ccccc1)c1ccccn1 | 0.51 µM | 2.22 µM | 0.185 | 8.74 | 0.0703 | 11.3 | 0.118 | 10.9 | 0.0296 | 39.3 | < 0.01 | 0.0538 | 0.277 | 1.99 | 0.0692 | 3.74 µM | < 0.01 | > 100 | 0.207 | 1.61
13 | O=[N+]([O-])c1ccc(N=Nc2c(O)[nH]c3ccc(Br)cc23)c([N+](=O)[O-])c1 |  | 34.7 µM |  | 27.2 |  | 10.5 |  |  |  | 9.84 |  | 19.3 |  | 13.2 |  |  |  | 9.3 |  | 8.35
14 | NCCCNCCCNc1nc2ccccc2c2[nH]c3ccccc3c12 | 0.743 µM and 0.322 µM | 4.14 µM and 3.42 µM | 0.458 | 2.31 | 0.0059 | 1.17 | 0.215 | 1.61 | 0.343 | 3.51 | 0.449 | 2.43 | 0.0975 | 1.56 | 0.0399 | 1.74 µM | 0.126 | 2.42 | 0.00716 | 0.563
15 | CCN1C(=O)N(CC)C2C1NN=c1s/c(=C\c3ccc([N+](=O)[O-])cc3)c(=O)n12 (centres undefined) | 0.698 µM | 49.5 µM | 0.395 | > 46.4 | 0.385 | > 66.4 | 1.22 | > 91.1 | 0.449 | > 38.9 | 0.283 | 0.842 | 0.621 | > 100 | 0.369 | > 100 µM | 0.411 | > 46.7 | 0.323 | 6.94
16 | Cn1cc(-c2csc(-c3cn(C)c4ncccc34)n2)c2ccccc21 | 0.544 µM | 15.7 µM | 0.373 | 32.5 | 0.0961 | > 43.9 | 0.876 | 23.8 | 0.396 | 25.3 | 0.143 | 1.3 | 0.588 | 18.1 | 0.336 | 13.5 µM | 0.368 | > 61.6 | 0.0889 | 1.16
17 | COc1cc2c(cc1OCCCN1CCN(CCCOc3cc4c(cc3OC)C(=O)C3CCC[C@H]3C=N4)CC1)N=C[C@@H]1CCCC1C2=O (some centres undefined) | 63.5 µM | > 100 µM | 26.5 | > 79.8 | 0.367 | > 100 | 4.84 | > 27.2 | 0.24 | 3.81 | 8.17 | 60.6 | 3.84 | > 100 | 4.45 | > 69.9 µM | 0.478 | > 74.3 | 0.446 | > 29.6
18 | C[CH2][Sn]([CH2]C)([O]C(=O)c1cc(OC)c(OC)c(OC)c1)[O][Sn]([CH2]C)([CH2]C)[O]C(=O)c1cc(OC)c(OC)c(OC)c1 | > 100 µM | > 100 µM | 15.7 | 29.8 | 36.3 | > 100 | > 100 | > 100 | 28.7 | > 100 | > 64.4 | > 100 | 27.4 | > 59.8 | > 100 | > 100 µM | 7.78 | 33.1 | 1.91 | 5.65
19 | c1ccc(COc2ccc(Nc3ncnc4ccc(-c5ccco5)cc34)cc2)cc1 | 0.994 µM | 8.16 µM | 2.19 | > 25 | 6.7 | > 25 | 4.57 | 14.8 | 5.5 | 20.2 | 5.4 | 12.8 | 4.91 | 12.9 | 2.84 | > 25 µM | 7.76 | > 25 | 4.84 | 15.1
20 | CCN=C(N)CSS(=O)(=O)O |  | > 100 µM |  | > 100 |  | > 100 |  | > 100 |  | > 100 |  | > 100 |  | > 100 |  | > 100 µM |  | > 100 |  | > 100
21 | CC1(C)OCC(C2OC(On3nnc4ccc(Cl)cc43)C3OC(C)(C)OC23)O1 (centres undefined) |  | > 100 µM |  | > 100 |  | > 100 |  | > 100 |  | > 100 |  | > 100 |  | > 100 |  | > 100 µM |  | > 100 |  | > 100
22 | Cn1cccc1C1CC(=O)N(CCC[Se]C#N)C1=O (centres undefined) | 3.22 µM | 6.72 µM | 1.92 | 3.57 | 2.76 | > 100 | 2.49 | 6.51 | 2.2 | 5.04 | 1.92 | 3.99 | 1.95 | 3.44 | 2.05 | 5.93 µM | 2.22 | 7.66 | 1.87 | 4.04
23 | CCN(CC)c1ccc(/C=C/C2=[N+](C)c3ccccc3C2(C)C)cc1 | 0.275 µM | 2.79 µM | 0.852 | 12.6 | > 20.9 | > 100 | 1.01 | 23.7 | 0.0557 | > 61.6 | 0.281 | 13.2 | 0.653 | 13.6 | 0.312 | 15.8 µM | 0.183 | > 100 | 0.274 | 21.8
24 | CC(=O)C(CN1CCOCC1)C(c1ccccc1)c1c(O)c2ccccc2oc1=O (centres undefined) |  | > 100 µM |  | > 100 |  | > 100 |  | > 100 |  | 96.4 |  | > 100 |  | > 100 |  | > 100 µM |  | > 100 |  | > 100
25 | Cc1nc(N=C(N)N)nc2ccc3ccccc3c12 | 1.92 µM | 6.85 µM | 2.5 | 10.9 | 0.423 | 2.26 | 2.29 | 7.52 | 2.53 | 7.36 | 1.32 | 3.77 | 1.11 | 3.01 | 2.31 | 6.56 µM | 1.76 | 6.01 | 1.04 | 2.5
26 | Nc1ccc(C(=O)O)c2[nH]c3ccccc3c(=O)c12 |  | > 100 µM |  | > 100 |  | > 100 |  | > 100 |  | > 100 |  |  |  | > 100 |  | > 100 µM |  | > 100 |  | > 100
27 | Cc1cc(C)c2c(c1C)CN1CN2Cc2c(C)c(C)cc(C)c21 |  | > 100 µM |  | > 100 |  | > 100 |  | > 100 |  | > 100 |  | > 100 |  | > 100 |  | > 100 µM |  | > 100 |  | > 100
28 | C=C1C(=O)C23C(O)C1CCC2C12CO[C@]3(O)[C@@H](O)C1C(C)(C)CCC2O (some centres undefined) |  | 34.5 µM |  | 28.5 |  | > 100 |  | 34.5 |  | > 100 |  | 30.3 |  | 25.1 |  | 29.2 µM |  | 5.98 |  | 2.15
29 | COc1cc(-c2[nH]ncc2CCCC(=O)Nc2ccccc2[N+](=O)[O-])ccc1O |  | > 100 µM |  | > 100 |  | > 100 |  | > 100 |  | > 100 |  |  |  | > 100 |  |  |  | > 100 |  | > 100
30 | COC(=O)C12C3C=CC(O3)C1C1C=CC2O1 (centres undefined) |  | > 100 µM |  |  |  | > 100 |  | > 100 |  | > 100 |  | > 100 |  | > 100 |  | > 100 µM |  | > 100 |  | > 100
